Source: patent publication US20250340886A1, “INTRACELLULAR KINASE ASSOCIATED WITH RESISTANCE AGAINST ANTI-TUMOUR IMMUNE RESPONSES, AND USES THEREOF” (iOmx Therapeutics AG, priority 2017, published 2025)
Where two headings read alike, the source gives them in different places.

Columns and labels:
M579 cells = test: real-time live-cell microscopy of TIL209-mediated lysis of shRNA-transduced tumour cells; type: cell-based, human; settings: co-culture with HLA-A2.1+-matched TIL209, compared to shCtrl
Excerpt: FIG. 15: Real-time live cell microscopy showing mean+/−SEM of TIL209-mediated lysis of M579 cells transduced with shCtrl or shSIK3 lentiviral constructs. The graph indicates the area of YOYO-1+ cells/well (um2/well).
SIK3 was stably knocked down in the primary line using SIK3-specific shRNA (shSIK3) or the control non-targeting shRNA sequence (shCtrl). The shRNA sequences targeting SIK3 are set forth in Table A2, and the transduced cell lines were produced briefly as follows: lentiviral transduction particles expressing an shRNA targeting SIK3 mRNA or control shRNA (Sigma-Aldrich) were used for transduction. 5×10^4 […] cells were seeded in a 6 well plate in DMEM 10% FCS 1% P/S. After 24 h, lentiviral particles were added using multiplicity of infection (MOI)=2. 48 h from transduction, cells were put under positive selection using 0.4 μg/ml puromycin. First, the shSIK3 or shCtrl transduced tumour cells were co-cultured with HLA-A2.1+−matched TIL209, and the extent of T cell-mediated killing was monitored using in vitro real-time live-cell microscopy. […] Second, the shSIK3 and shCtrl transduced tumour cells were subcutaneously injected into the left and the right flank, respectively, of NSG immune deficient mice (FIG. 16A), and adoptive cell transfer of TIL209 or PBS injection was applied i.v. once per week (FIG. 16B Scheme).

M579 tumours = test: in vivo adoptive T cell transfer model, shCtrl or shSIK3-transduced M579 tumours in NSG mice; set-up: species or system mouse
Excerpt: FIG. 16: (A) Schematic representation of the in vivo mouse experiment. Subcutaneous (s.c.) implantation of shCtrl or shSIK3-transduced M579 cells was applied to the left and the right flank of immunodeficient (NOD scid gamma; NSG) mice, respectively. (B) Mice received intravenous (i.v.) injection of TIL209 (n=9) or PBS alone (n=7) at day 3, 10, 17 and 24. (C) Tumour growth curves showing mean+/−SEM of tumour volume (mm3) of shCtrl or shSIK3-engrafted M579 tumours in mice treated with either TIL209 or PBS. Statistical difference was calculated using unpaired one-side Mann-Whitney U-test. (D) Binding of TNF to TNFR1 (TNFR-I) on tumour cells results in downstream signalling cascade that involve caspase 8 cleavage, NF-kappaB nuclear translocation and SIK3 phosphorylation. NF-kappaB nuclear retention is sustained by its acetylation, and HDAC4 deacetylase acts as negative regulator of NF-kappaB. TNF stimulation increases the levels of pLKB1 which in turn results in increased SIK3 activation. […]
SIK3 was stably knocked down in the primary line using SIK3-specific shRNA (shSIK3) or the control non-targeting shRNA sequence (shCtrl). […] First, the shSIK3 or shCtrl transduced tumour cells were co-cultured with HLA-A2.1+−matched TIL209, and the extent of T cell-mediated killing was monitored using in vitro real-time live-cell microscopy. […]

PANC-1 tumour cells [1] = test: Luc-CTL assay: PANC-1 cells co-cultured with TIL #1 in the presence of small molecule SIK inhibitor; settings: FIGS. 7A and 7B
SIK2 = SIK2 (Homo sapiens (Human), UniProt Q9H0K1); test: radiometric protein kinase assay (33PanQinase Activity Assay, ProQinase Free Choice Kinase Assay); type: biochemical; settings: ATP 1.0 uM, read-out: SIK2 IC50 rank
SIK3 = SIK3 (Homo sapiens (Human), UniProt Q9Y2K2); test: as above; type: biochemical; settings: read-out: SIK3 IC50 rank
SIK1 = SIK1 (Homo sapiens (Human), UniProt P57059); test: as above; type: biochemical; settings: ATP 3.0 uM, read-out: SIK1 IC50 rank
M579-A2-luc tumour cells = test: luciferase-based tumour cell viability assay, M579-A2-luc cells with inhibitor and TNF; settings: for tumour cell survival (RLU): in combination with 10 ng/mL TNF, about 20 to 100 nM, FIG. 18
ABL1 wt = ABL1 wt (Homo sapiens (Human), UniProt P00519); test: radiometric protein kinase assay (33PanQinase Activity Assay, ProQinase Free Choice Kinase Assay); type: biochemical; settings: indicative IC50, Table 4; ATP 0.3 uM; read-out: ABL1 IC50 rank
SRC (GST-HIS-tag) = SRC (GST-HIS-tag) (Homo sapiens (Human), UniProt P12931); test: as above; type: biochemical; settings: indicative IC50, Table 4; ATP 0.3 uM; read-out: SRC IC50 rank
PANC-1 tumour cells [2] = test system: PANC-1 tumour cells
[3] = indicative IC50, Table 2A, ATP 1.0 uM

Chain of SIK1 (P57059 whole entry): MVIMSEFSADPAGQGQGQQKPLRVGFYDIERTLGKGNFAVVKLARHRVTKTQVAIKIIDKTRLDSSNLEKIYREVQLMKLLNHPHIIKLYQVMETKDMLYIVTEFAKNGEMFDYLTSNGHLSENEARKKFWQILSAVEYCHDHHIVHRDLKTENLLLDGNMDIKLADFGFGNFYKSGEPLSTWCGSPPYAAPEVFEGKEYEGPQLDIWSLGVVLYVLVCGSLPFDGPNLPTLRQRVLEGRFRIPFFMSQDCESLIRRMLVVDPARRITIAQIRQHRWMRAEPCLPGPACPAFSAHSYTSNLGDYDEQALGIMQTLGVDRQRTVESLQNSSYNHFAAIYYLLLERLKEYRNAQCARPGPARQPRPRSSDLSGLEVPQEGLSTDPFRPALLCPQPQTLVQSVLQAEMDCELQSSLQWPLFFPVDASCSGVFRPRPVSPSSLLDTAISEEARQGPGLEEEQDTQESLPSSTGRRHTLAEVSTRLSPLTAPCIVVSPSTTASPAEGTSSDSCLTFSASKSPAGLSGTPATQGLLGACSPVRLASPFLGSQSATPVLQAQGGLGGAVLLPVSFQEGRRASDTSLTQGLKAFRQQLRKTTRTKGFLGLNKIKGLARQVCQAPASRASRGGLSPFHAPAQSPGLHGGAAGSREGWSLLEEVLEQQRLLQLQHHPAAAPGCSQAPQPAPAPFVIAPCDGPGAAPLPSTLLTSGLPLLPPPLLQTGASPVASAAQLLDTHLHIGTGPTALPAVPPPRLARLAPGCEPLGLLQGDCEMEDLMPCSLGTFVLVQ
Chain of SIK2 (Q9H0K1 whole entry): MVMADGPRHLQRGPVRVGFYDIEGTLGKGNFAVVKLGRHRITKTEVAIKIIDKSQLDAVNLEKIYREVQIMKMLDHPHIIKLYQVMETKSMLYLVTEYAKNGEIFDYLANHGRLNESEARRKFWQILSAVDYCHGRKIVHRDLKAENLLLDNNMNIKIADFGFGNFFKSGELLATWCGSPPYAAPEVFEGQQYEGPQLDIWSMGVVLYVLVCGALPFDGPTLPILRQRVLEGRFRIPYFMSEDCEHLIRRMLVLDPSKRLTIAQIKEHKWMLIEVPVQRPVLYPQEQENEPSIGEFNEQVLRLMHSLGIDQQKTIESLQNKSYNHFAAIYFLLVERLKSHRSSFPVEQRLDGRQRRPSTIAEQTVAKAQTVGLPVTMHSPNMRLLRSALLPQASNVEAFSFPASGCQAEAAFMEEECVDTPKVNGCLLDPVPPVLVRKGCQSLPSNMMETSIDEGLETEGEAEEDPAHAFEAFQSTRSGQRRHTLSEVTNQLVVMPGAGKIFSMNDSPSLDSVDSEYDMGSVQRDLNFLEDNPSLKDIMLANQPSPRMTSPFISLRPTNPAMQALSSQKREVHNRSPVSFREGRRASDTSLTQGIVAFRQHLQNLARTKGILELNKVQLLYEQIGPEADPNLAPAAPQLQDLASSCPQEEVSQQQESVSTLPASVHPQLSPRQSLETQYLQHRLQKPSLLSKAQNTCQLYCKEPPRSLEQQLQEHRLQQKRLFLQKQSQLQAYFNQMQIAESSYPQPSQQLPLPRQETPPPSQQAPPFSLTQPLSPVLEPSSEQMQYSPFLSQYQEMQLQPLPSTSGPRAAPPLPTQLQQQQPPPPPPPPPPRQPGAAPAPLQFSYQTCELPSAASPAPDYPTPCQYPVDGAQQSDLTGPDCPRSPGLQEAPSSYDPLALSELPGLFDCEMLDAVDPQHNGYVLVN
Chain of SIK3 (Q9Y2K2 whole entry): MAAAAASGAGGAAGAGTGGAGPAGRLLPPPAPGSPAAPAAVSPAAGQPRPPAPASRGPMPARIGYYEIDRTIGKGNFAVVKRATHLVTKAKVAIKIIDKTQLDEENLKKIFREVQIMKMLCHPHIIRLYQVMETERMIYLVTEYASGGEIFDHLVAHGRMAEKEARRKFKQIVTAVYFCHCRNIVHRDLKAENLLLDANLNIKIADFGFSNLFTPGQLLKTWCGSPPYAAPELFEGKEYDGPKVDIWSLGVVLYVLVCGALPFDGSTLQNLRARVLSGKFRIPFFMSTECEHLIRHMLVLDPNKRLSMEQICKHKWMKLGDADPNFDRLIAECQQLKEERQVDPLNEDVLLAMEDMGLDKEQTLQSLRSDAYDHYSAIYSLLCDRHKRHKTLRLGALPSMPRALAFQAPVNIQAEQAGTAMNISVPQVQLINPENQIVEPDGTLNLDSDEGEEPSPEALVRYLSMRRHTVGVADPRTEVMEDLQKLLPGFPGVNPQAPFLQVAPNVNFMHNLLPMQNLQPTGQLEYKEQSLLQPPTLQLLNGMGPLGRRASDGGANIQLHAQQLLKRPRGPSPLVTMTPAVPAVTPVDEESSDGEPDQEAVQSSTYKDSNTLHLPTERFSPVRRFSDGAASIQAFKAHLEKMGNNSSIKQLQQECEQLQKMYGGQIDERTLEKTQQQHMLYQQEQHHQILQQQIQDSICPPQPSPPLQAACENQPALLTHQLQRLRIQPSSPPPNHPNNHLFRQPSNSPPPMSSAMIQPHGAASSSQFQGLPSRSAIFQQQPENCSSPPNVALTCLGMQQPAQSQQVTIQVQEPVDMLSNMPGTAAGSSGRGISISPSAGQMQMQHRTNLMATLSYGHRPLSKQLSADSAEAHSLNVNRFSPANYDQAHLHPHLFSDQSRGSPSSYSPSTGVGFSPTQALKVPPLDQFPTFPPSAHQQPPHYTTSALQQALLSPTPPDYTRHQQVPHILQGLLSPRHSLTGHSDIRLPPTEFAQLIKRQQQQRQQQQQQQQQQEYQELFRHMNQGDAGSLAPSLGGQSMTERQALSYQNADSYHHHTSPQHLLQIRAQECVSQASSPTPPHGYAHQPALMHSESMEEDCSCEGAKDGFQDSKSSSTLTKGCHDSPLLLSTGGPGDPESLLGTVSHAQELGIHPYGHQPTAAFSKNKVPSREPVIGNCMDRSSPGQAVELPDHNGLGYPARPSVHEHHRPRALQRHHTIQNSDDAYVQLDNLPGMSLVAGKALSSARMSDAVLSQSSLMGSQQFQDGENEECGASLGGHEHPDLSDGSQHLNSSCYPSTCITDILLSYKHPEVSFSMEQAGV
Chain of ABL1 wt (P00519 whole entry): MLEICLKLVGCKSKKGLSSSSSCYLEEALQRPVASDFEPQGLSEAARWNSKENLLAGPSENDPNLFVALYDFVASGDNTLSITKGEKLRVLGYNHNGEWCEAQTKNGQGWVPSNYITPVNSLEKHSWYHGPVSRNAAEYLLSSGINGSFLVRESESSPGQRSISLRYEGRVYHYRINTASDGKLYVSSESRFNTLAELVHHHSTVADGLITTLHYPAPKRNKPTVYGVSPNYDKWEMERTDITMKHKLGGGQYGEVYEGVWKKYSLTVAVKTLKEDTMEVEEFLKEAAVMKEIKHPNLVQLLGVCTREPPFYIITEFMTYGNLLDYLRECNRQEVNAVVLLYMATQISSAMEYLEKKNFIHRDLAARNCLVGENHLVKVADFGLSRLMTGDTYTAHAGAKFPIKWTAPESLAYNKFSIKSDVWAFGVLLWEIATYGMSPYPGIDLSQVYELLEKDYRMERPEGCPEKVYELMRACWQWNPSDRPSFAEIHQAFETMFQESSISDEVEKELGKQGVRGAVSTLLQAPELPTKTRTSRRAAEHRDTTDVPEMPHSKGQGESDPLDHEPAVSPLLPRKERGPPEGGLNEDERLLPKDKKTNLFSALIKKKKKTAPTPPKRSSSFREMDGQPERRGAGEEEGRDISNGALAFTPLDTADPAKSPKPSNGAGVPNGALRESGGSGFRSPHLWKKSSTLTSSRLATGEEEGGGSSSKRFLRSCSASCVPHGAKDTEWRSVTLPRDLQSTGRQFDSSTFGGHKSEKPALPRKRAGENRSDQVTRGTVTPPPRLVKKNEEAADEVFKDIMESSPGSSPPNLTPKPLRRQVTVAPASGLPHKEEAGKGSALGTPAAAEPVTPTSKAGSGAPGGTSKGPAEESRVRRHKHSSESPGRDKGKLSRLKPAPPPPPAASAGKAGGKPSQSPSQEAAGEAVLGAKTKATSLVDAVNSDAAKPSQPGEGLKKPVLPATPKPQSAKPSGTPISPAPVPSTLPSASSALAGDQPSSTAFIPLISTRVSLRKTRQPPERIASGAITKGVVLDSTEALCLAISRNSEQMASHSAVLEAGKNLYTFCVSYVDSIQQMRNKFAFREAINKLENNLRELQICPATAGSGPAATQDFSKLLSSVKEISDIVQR
Chain of SRC (GST-HIS-tag) (P12931 whole entry, looked up): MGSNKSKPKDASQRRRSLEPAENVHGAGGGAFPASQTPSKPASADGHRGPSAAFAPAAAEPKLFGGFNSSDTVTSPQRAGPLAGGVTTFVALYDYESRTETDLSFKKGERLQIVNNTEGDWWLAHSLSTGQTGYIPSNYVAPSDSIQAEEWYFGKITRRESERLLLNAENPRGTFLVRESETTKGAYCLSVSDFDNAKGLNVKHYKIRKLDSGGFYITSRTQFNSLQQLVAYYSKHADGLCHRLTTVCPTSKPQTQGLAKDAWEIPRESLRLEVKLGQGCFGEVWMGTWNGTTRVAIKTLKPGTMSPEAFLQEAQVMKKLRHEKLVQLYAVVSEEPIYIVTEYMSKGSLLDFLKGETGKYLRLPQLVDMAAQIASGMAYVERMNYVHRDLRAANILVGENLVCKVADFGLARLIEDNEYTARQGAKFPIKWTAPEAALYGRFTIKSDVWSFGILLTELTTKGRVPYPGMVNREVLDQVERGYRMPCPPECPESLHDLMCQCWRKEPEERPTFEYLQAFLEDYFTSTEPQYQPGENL

Compound: shSIK3: SIK3-specific shRNA, Sigma TRCN0000037452, delivered by lentiviral transduction particles (DNA CCGGGCCAGGCTTTATCTTATCAAACTCGAGTTTGATAAGATAAAGCCTGGCTTTTTG)
- T cell-mediated killing (M579 cells): increased killing efficacy
- tumour growth kinetic (M579 tumours; PBS-treated, shCtrl versus shSIK3): no difference in the tumour growth kinetic
- tumour growth (M579 tumours; s.c. tumours, TIL209 i.v. once per week, compared to shCtrl): retardation of tumour growth

Compound: COc1cc(Nc2c(C#N)cnc3cc(OCCCN4CCN(C)CC4)c(OC)cc23)c(Cl)cc1Cl [bosutinib, 3-Quinolinecarbonitrile, 4-[(2,4-dichloro-5-methoxyphenyl)amino]-6-methoxy-7-[3-(4-methyl-1-piperazinyl)propoxy]-, hydrate (1:1)]
- sensitivity to TILs and/or TNF-mediated tumour lysis (cytotoxicity to viability ratio in Luc-CTL assay) (PANC-1 tumour cells [1]): remarkable increase in sensitivity to TILs and/or TNF-mediated tumour lysis

Compound: Cc1nc(Nc2ncc(C(=O)Nc3ccccc3S(=O)(=O)C(C)C)s2)cc(N2CCN(CCO)CC2)n1 [Compound A6, 2-((6-(4-(2-hydroxyethyl)piperazin-1-yl)-2-methylpyrimidin-4-yl)amino)-N-(2-(propane-2-sulfonyl)phenyl)thiazole-5-carboxamide]
- IC50 (SIK2; indicative IC50, Table 2A): > 100 nM
- IC50 (SIK3; [3]): > 1000 nM
- IC50 (SIK1; indicative IC50, Table 2A): > 1000 nM
- tumour cell survival (RLU) (M579-A2-luc tumour cells): remains unaffected

Compound: Cc1nc(Nc2ncc(C(=O)Nc3ccccc3)s2)cc(N2CCN(CCO)CC2)n1 [Compound A11, ((6-(4-(2-hydroxyethyl)piperazin-1-yl)-2-methylpyrimidin-4-yl)amino)-N-phenylthiazole-5-carboxamide]
- IC50 (SIK2; indicative IC50, Table 2A): > 100 nM
- IC50 (SIK3; [3]): > 1000 nM
- IC50 (SIK1; indicative IC50, Table 2A): > 100 nM
- tumour cell survival (RLU) (M579-A2-luc tumour cells): remains unaffected

Compound: CCOc1cccc(Cl)c1NC(=O)c1cnc(Nc2cc(N3CCN(CCO)CC3)nc(C)n2)s1 [Compound B8, N-(2-chloro-6-ethoxyphenyl)-2-((6-(4-(2-hydroxyethyl)piperazin-1-yl)-2-methylpyrimidin-4-yl)amino)thiazole-5-carboxamide]
- IC50 (SIK2; indicative IC50, Table 4): > 1000 nM
- IC50 (SIK3): > 5000 nM
- IC50 (ABL1 wt): < 100 nM
- IC50 (SIK1; indicative IC50, Table 4): > 1000 nM
- IC50 (SRC (GST-HIS-tag)): < 100 nM
- cytotoxicity of M579 A2 cells in combination with TNF compared to inhibitor alone (M579-A2-luc tumour cells; TNF 10 ng/mL, inhibitor between about 10 and 100 nM, FIG. 17): fails to exhibit cytotoxicity

Compound: HG-9-91-01
- sensitivity to TILs and/or TNF-mediated tumour lysis (cytotoxicity to viability ratio in Luc-CTL assay) (PANC-1 tumour cells [2]): remarkable increase in sensitivity to TILs and/or TNF-mediated tumour lysis
